Test results as given in patent US8871264B2, “Immediate release tablet formulations” (AstraZeneca AB, priority 2009, dated 2014).
Where two headings read alike, the source gives them in different places.

Tests used:
[1] = phosphate buffer pH 6.8, 37° C., 75 rpm, n=6; for Dissoln. % 10 min: tablets of Example 12, 10 min; for Dissoln. % 20 min: tablets of Example 12, 20 min; for Dissoln. % 30 min: tablets of Example 12, 30 min; for Dissoln. % 45 min: tablets of Example 12, 45 min; for Dissoln. % 75 min: tablets of Example 12, 75 min; for Dissolution % 10 min: tablets of Example 13, 10 min; for Dissolution % 20 min: tablets of Example 13, 20 min; for Dissolution % 30 min: tablets of Example 13, 30 min; for Dissolution % 45 min: tablets of Example 13, 45 min; for Dissoln % 75 min: tablets of Example 13, 75 min
[2] = tested on: type II diabetic patients; conditions: for adjusted mean change in HbA1c from baseline: after 24 weeks; for adjusted mean change in HbA1c from baseline / adjusted mean change in FPG from baseline at Week 24: type 2 diabetes patients; for change in total body weight: at 24 weeks
Protocol: The data represent findings from a randomized, double-blind, placebo-controlled study of 546 individuals with type 2 diabetes whose HbA1c was greater than or equal to 7.0 percent and less than or equal to 10 percent at baseline. […] Patients in all arms also received metformin (greater than or equal to 1500 mg/d). […] Exploratory endpoints included body weight decrease of greater than or equal to 5 percent or greater than or equal to 10 percent as well as body weight percent change from baseline.

[3] = combination of metformin and dapagliflozin, 24 weeks, compared to placebo plus metformin
[4] = dapagliflozin 2.5 mg plus metformin
[5] = dapagliflozin 5 mg plus metformin
[6] = dapagliflozin 10 mg plus metformin

| SMILES | Dissoln. % 10 min [1] [%] | Dissoln. % 20 min [1] [%] | Dissoln. % 30 min [1] [%] | Dissoln. % 45 min [1] [%] | Dissoln. % 75 min [1] [%] | Dissolution % 10 min [1] [%] | Dissolution % 20 min [1] [%] | Dissolution % 30 min [1] [%] | Dissolution % 45 min [1] [%] | Dissoln % 75 min [1] [%] | further results |
| --- | --- | --- | --- | --- | --- | --- | --- | --- | --- | --- | --- |
| CN(C)C(=N)N=C(N)N [Metformin] | 41 | 80 | 97 | 100 | 100 | 41 | 81 | 98 | 100 | 100 |  |
| CCOc1ccc(Cc2cc([C@@H]3O[C@H](CO)[C@@H](O)[C@H](O)[C@H]3O)ccc2Cl)cc1 [Dapagliflozin, (2S,3R,4R,5S,6R)-2-(4-chloro-3-(4-ethoxybenzyl)phenyl)-6-(hydroxymethyl)tetrahydro-2H-pyran-3,4,5-triol] | 38 | 78 | 96 | 99 | 99 | 37 | 77 | 95 | 97 | 97 | fasting plasma glucose (FPG) levels [2, 3]: reduced; glycosylated hemoglobin levels (HbA1c) [2, 3]: reduced; mean reductions in body weight ([2]; compared to individuals taking placebo, 24 weeks): statistically greater mean reductions; patients achieving weight losses greater than or equal to 5 percent ([2]; compared to placebo, exploratory endpoint, 24 weeks): more patients; adjusted mean change in HbA1c from baseline [2, 4]: −0.67%; change in total body weight [2, 4]: -2.21 kg; adjusted mean change in FPG from baseline at Week 24 [2, 4]: -17.8 mg/dL; adjusted mean change in HbA1c from baseline [2, 5]: −0.70%; change in total body weight [2, 5]: -3.04 kg; adjusted mean change in HbA1c from baseline [2, 6]: −0.84%; change in total body weight [2, 6]: -2.86 kg; adjusted mean change in FPG from baseline at Week 24 [2, 6]: −23.5 mg/dL/dl |
